For one test, the target named is T1, GST-RORγ LBD (263-509) (Homo sapiens, UniProt P51449).
T1 construct: GST-RORγ LBD ((263-509) (produced at ChemPartner))
T1 sequence (P51449 263-509): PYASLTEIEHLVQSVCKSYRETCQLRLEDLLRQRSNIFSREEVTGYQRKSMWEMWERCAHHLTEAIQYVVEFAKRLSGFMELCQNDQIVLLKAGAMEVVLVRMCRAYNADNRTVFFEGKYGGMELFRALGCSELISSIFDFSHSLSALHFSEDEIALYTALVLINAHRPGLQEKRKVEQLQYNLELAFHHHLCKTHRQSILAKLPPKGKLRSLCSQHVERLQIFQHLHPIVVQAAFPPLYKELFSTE
The test is described as follows: TR-FRET assay of agonistic activity on RORγ receptor. The test is classed as biochemical. The settings on record: for EC50: TR-FRET, GST-RORγ LBD with Biotin-SRC1; for Emax: maximum activation rate, TOP of fitted curve. In a few lines: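 GST-RORγ LBD (75 nM solution) mixed 1:1 with Biotin-SRC1 (4 nM solution), then with Eu anti-GST and SA-APC; compounds in 10-point 3-fold series from 10 mM stock, duplicate.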

Another test has as its system human PBMC (Th17 cells). Briefly: Th17 differentiation and IL-17 secretion in human PBMC. It counts as cell-based. The settings on record: IL-17 ELISA after 48 hours; for Emax: maximum activation rate. (In general: ELISA stands for enzyme-linked immunosorbent assay.)
Test [1] has as its system mouse spleen lymphocytes (Th17 cells). The test is described as follows: Th17 differentiation and IL-17 secretion in mouse lymphocytes. The test is classed as cell-based. The settings on record: Lymphocyte, IL-17 ELISA after 48 hours; for Emax: maximum activation rate. The protocol: Test procedure: the mouse spleen lymphocytes were first isolated, and the lymphocytes were subject to the conditions of stimulating factors (anti-mCD28: 5 μg/mL; rmTGF-β1: 1 ng/mL; rmIL-6: 50 ng/mL; rmIL-23: 5 ng/mL) and differentiated to Th17, while adding different concentrations of compounds. All test compounds were serially diluted at 3-fold dilution with DMSO, with 8 serial dilutions starting from the maximum concentration 3 μM. The supernatants were collected after 48 hours for IL-17 ELISA detection, and compared with the solvent group, to determine the activation rate of the compounds on Th17 cells to secrete IL-17. EC50 values were fitted with Graphad 8.0, and the TOP values fitted by the software was Emax %.

With `COCC(C(=O)Nc1ccc(-c2ccc(S(=O)(=O)C3CC3)cc2)c(C(F)(F)F)c1)c1ccc(S(C)(=O)=O)cc1` (single isomer, unassigned) [Example 43, (S)—N-(4′-(cyclopropylsulfonyl)-2-(trifluoromethyl)-[1,1′-biphenyl]-4-yl)-3-methoxy-2-(4-(methylsulfonyl)phenyl)propionamide or (R)—N-(4′-(cyclopropylsulfonyl)-2-(trifluoromethyl)-[1,1′-biphenyl]-4-yl)-3-methoxy-2-(4-(methylsulfonyl)phenyl)propanamide], on GST-RORγ LBD (263-509), the EC50 (commonly the concentration that produces a half-maximal response) amounted to 6.2 nM and the maximal response (Emax) (as a rule, the greatest response seen or fitted, relative to the assay's reference) was found to be 194%. In the test on human PBMC (Th17 cells), this compound registered an EC50 of 135 nM and an Emax of 265%.

In the case of `CCS(=O)(=O)c1ccc(CC(=O)Nc2cc(Cl)c(-c3ccc(S(C)(=O)=O)cc3)c(Cl)c2)cc1` [Example 2, N-(2,6-dichloro-4′-(methylsulfonyl)-[1,1′-biphenyl]-4-yl)-2-(4-(ethylsulfonyl)phenyl)acetamide], the EC50 amounted to 9.1 nM at GST-RORγ LBD (263-509), 114 nM in test [1] and 61.6 nM in the test on human PBMC (Th17 cells). Besides, the figures for the Emax (on GST-RORγ LBD (263-509); in test [1]; with human PBMC (Th17 cells)) were 210%, 203% and 138%, respectively.

As to `CCS(=O)(=O)c1ccc(-c2c(Cl)cc(NC(=O)Cc3ccc(S(C)(=O)=O)cc3)cc2Cl)cc1` [Example 4, N-(2,6-Dichloro-4′-(ethylsulfonyl)-[1,1′-biphenyl]-4-yl)-2-(4-(methylsulfonyl)phenyl)acetamide], the EC50 turned out to be 9.6 nM at GST-RORγ LBD (263-509), 112 nM in test [1] and 30.4 nM with human PBMC (Th17 cells). The Emax at GST-RORγ LBD (263-509) was 220%; in test [1] it was 156%; with human PBMC (Th17 cells), 152%.

As to `CCS(=O)(=O)c1ccc(-c2c(Cl)cc(NC(=O)Cc3ccc(S(=O)(=O)CC)cn3)cc2Cl)cc1` [Example 5, N-(2,6-Dichloro-4′-(ethylsulfonyl)-[1,1′-biphenyl]-4-yl)-2-(5-(ethylsulfonyl)pyridin-2-yl)acetamide], the results for the EC50 (on GST-RORγ LBD (263-509); in test [1]; with human PBMC (Th17 cells)) were 8.5 nM, 11.4 nM and 33.2 nM, respectively. Besides, the Emax at GST-RORγ LBD (263-509) amounted to 222%; in test [1], 147%; in the test on human PBMC (Th17 cells), 123%.

Take `CCS(=O)(=O)c1ccc(CC(=O)Nc2cc(Cl)c(-c3ccc(S(C)(=O)=O)cc3)c(Cl)c2)nc1` [Example 8, N-(2,6-Dichloro-4′-(methylsulfonyl)-[1,1′-biphenyl]-4-yl)-2-(5-(ethylsulfonyl)pyridin-2-yl)acetamide]: the EC50 at GST-RORγ LBD (263-509) stood at 10.1 nM; in test [1], 370 nM; with human PBMC (Th17 cells) it was 347 nM. For the same compound, the Emax at GST-RORγ LBD (263-509) was 170%; in test [1], 85%; with human PBMC (Th17 cells), 129%.

In the case of `CCS(=O)(=O)c1ccc(-c2c(Cl)cc(NC(=O)Cc3ccc(S(C)(=O)=O)cn3)cc2Cl)cc1` [Example 9, N-(2,6-Dichloro-4′-(ethylsulfonyl)-[1,1′-biphenyl]-4-yl)-2-(5-(methylsulfonyl)pyridin-2-yl)acetamide], the results for the EC50 (at GST-RORγ LBD (263-509); in test [1]; in the test on human PBMC (Th17 cells)) were 22.2 nM, 943 nM and 360 nM, respectively. The figures for the Emax (at GST-RORγ LBD (263-509); in test [1]; with human PBMC (Th17 cells)) were 160%, 65.4% and 167%, respectively.

Take `CS(=O)(=O)c1ccc(CC(=O)Nc2cc(Cl)c(-c3ccc(S(=O)(=O)C4CC4)cc3)c(Cl)c2)cc1` [Example 11, N-(2,6-Dichloro-4′-(cyclopropylsulfonyl)-[1,1′-biphenyl]-4-yl)-2-(4-(methylsulfonyl)phenyl)acetamide]: the EC50 at GST-RORγ LBD (263-509) turned out to be 6.8 nM; in test [1] it was 318 nM; with human PBMC (Th17 cells), 52.8 nM. The Emax on GST-RORγ LBD (263-509) is 167%; in test [1], 123%; in the test on human PBMC (Th17 cells), 149%.

As for `CCS(=O)(=O)c1ccc(-c2c(Cl)cc(NC(=O)C(COC)c3ccc(S(=O)(=O)CC)cc3)cc2Cl)cc1` (stereo not drawn) [Example 13, N-(2,6-Dichloro-4′-(ethylsulfonyl)-[1,1′-biphenyl]-4-yl)-2-(4-(ethylsulfonyl)phenyl)-3-methoxypropionamide], the results for the EC50 (on GST-RORγ LBD (263-509); in test [1]; in the test on human PBMC (Th17 cells)) were 12.1 nM, 5.7 nM and 6.2 nM, respectively. For the same compound, the Emax on GST-RORγ LBD (263-509) was found to be 171%; in test [1] it was 134%; with human PBMC (Th17 cells) it was 139%.

At GST-RORγ LBD (263-509), `CCS(=O)(=O)c1ccc(C(COC)C(=O)Nc2cc(Cl)c(-c3ccc(S(=O)(=O)C4CC4)cc3)c(Cl)c2)cc1` (stereo not drawn) [Example 16, N-(2,6-Dichloro-4′-(cyclopropylsulfonyl)-[1,1′-biphenyl]-4-yl)-2-(4-(ethylsulfonyl)phenyl)-3-methoxypropionamide] displayed an EC50 of 16.6 nM and an Emax of 187%. In the test on human PBMC (Th17 cells), this compound came in with an EC50 of 27.3 nM and an Emax of 202%.

Consider `COCC(C(=O)Nc1cc(Cl)c(-c2ccc(S(=O)(=O)C3CC3)cc2)c(Cl)c1)c1ccc(S(C)(=O)=O)cc1` (stereo not drawn) [Example 20, N-(2,6-Dichloro-4′-(cyclopropylsulfonyl)-[1,1′-biphenyl]-4-yl)-3-methoxy-2-(4-(methylsulfonyl)phenyl)propionamide], for which, on GST-RORγ LBD (263-509), the EC50 was found to be 19.5 nM and the Emax amounted to 192%. In the test on human PBMC (Th17 cells), this compound came in with an EC50 of 18.9 nM and a maximal effect (Emax) of 228%.

The values are drawn from patent publication US20220402867A1, “SULFO-SUBSTITUTED BIARYL COMPOUND OR SALT THEREOF, PREPARATION METHOD THEREFOR, AND USE THEREOF” (Shanghai Litedd Co., Ltd., priority 2019, published 2022).
